We go through eight compounds from patent EP2386565A2, “Compounds and methods to inhibit or augment an inflammatory response” (Cambridge Enterprise Ltd., priority 1999, dated 2000).

Non-standard residues stand in square brackets, D forms with d. Residues, ends and D or L forms follow the SMILES beside them. No end group written: not given here.

The target in experiment [1] is T1, Duffy Antigen Receptor for Chemokines (DARC) (Homo sapiens, UniProt Q16570).
T1 sequence (Q16570 1-336): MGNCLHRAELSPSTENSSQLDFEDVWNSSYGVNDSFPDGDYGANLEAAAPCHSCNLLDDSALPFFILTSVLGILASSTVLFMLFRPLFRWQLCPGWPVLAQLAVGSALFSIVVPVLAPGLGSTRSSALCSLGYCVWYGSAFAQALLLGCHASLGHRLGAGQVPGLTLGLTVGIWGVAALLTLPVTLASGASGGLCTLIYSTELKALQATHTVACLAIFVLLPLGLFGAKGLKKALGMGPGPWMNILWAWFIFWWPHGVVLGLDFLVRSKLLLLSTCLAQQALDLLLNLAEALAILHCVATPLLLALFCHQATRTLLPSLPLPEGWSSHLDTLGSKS
In words: DARC binding: competition with 125I-MCP-1 on red blood cells. The note with it: for DARC binding (µM): ns = not significantly different from control, >100 = not determined.

Experiment [2] relates to MCP-1 induced THP-1 migration. In words: THP-1 trans-well migration assay, MCP-1 as chemoattractant. It is filed as cell-based, human. Conditions: MCP-1 at 100 ng/ml in RPMI 1640 + 10% FCS; 4 hours; 5 µm filter. The method, then:
To determine whether an agent inhibits a chemokine-induced activity, such as macrophage recruitment, varying amounts of the agent are mixed with cells in the presence of a known chemoattractant. For example, a range of known concentrations of an agent, e.g., a chemokine peptide, is incubated with a defined number (e.g., 10^4 - […]) of human THP-1 monocyte cells in individual wells of the top compartment of a trans-well plate. Chemokine (such as MCP-1, MIP1α, IL8 or SDF-1α), at a concentration known to cause significant migration of THP-1 cells in the trans-well migration assay, is placed in the lower compartment (Figure 1). Cells are then incubated at 37°C for a period sufficient to allow migration, e.g., 4 hours. After incubation, the cells are gently removed from the top of the filter with a pipette, 20 µl of 20 mM EDTA in simple PBS is added into each top well, and incubated for 20 minutes at 4°C. The filter is carefully flushed with media using a gentle flow, and removed. A standard curve consisting of a two-fold dilution series of THP-1 cells (in 29 µl) is prepared to accurately quantify the number of cells that have migrated. Migrated cells are stained with 3 µl of MTT stock dye solution which is added directly into each well (5 mg/ml in RPMI-1640 without phenol red, Sigma Chemical Co.) and incubated at 37°C for 4 hours. The media is carefully aspirated from each well, and the converted dye is solubilized by 20 µl of DMSO. Absorbance of converted dye is measured at a wavelength of 595 nm using an ELISA plate reader. The number of migrated cells in each well is then determined by interpolation of the standard curve (see also Imai et al.,J. Biol. Chem., 272, 15036 (1997)).
Any method suitable for counting cells can be used, for example, counting with a hemocytometer, incubation of the cells with MTT (see above), or FACS analysis. A negative control assay is also performed, using TGF-β or another non-chemokine chemoattractant (e.g., IL1β or TNFα). To assess whether the agent is cytotoxic, the same concentrations of agent are incubated with THP-1 cells. Agents which 1) are not cytotoxic at levels which inhibit migration, 2) are ineffective at inhibiting the negative control-induced migration, and 3) reduce or inhibit chemokine-induced THP-1 migration, are agents which fall within the scope of the invention.
For this assay, THP-1 cells were maintained at a density of 4 × 10^5 cells per ml in RPMI-1640 supplemented with 10% fetal calf serum + 20 µM 2-mercaptoethanol. Chemotaxis was induced in a 96-well disposable chemotaxis chamber fitted with a 5 µM polycarbonate filter (PVP free, ChemoTX, Neuroprobe Inc., Cabin John). […] The framed filter was aligned with the holes in the corner of the filter frame and placed over the wells.
Five × 10^4 THP-1 cells in 25 µl of RPMI-1640 were added to the upper compartment. Peptides were dissolved in Milli Q water and then serially diluted in culture medium. In most cases, the serially diluted peptides were added to the upper compartment of the chemotaxis chamber. The chamber was incubated at 37°C in a humidified atmosphere of 5% CO2 for 4 hours.
After incubation, the cells were gently removed from the top of the filter with a pipette, 20 µl of 20 mM EDTA in PBS was added into each top well, and the mixture was incubated for 20 minutes at 4°C. The filter was then carefully flushed with media using a gentle flow, and removed. A standard curve was prepared to accurately quantify the number of THP-1 cells that had migrated. The curve was based on a two-fold dilution series of THP-1 cells (top standard 100,000 cells in 29 µl). Cells which had migrated, and in separate wells, the cells in the standards, were stained with 3 µl of MTT stock solution which was added directly into each well (5 mg/ml in RPMI 1640 without phenol red, Sigma Chemical Co.) and incubated at 37°C for 4 hours. The media was carefully aspirated from each well, and the converted dye was solubilized by 20 µl of DMSO. […]

The subject of experiment [3] is chemokine-induced THP-1 migration. Put plainly: THP-1 trans-well migration assay, several chemokines together (averages, selectivity, pan-chemokine statements). The experiment is classed as cell-based, human. The note with it: average inhibitory ED50 for THP-1 migration induced by each of the chemokines. As to the method: To determine whether an agent inhibits a chemokine-induced activity, such as macrophage recruitment, varying amounts of the agent are mixed with cells in the presence of a known chemoattractant. […] Chemokine (such as MCP-1, MIP1α, IL8 or SDF-1α), at a concentration known to cause significant migration of THP-1 cells in the trans-well migration assay, is placed in the lower compartment (Figure 1). Cells are then incubated at 37°C for a period sufficient to allow migration, e.g., 4 hours. After incubation, the cells are gently removed from the top of the filter with a pipette, 20 µl of 20 mM EDTA in simple PBS is added into each top well, and incubated for 20 minutes at 4°C. The filter is carefully flushed with media using a gentle flow, and removed. […] The media is carefully aspirated from each well, and the converted dye is solubilized by 20 µl of DMSO.
Chemotaxis was induced in a 96-well disposable chemotaxis chamber fitted with a 5 µM polycarbonate filter (PVP free, ChemoTX, Neuroprobe Inc., Cabin John). […] The framed filter was aligned with the holes in the corner of the filter frame and placed over the wells.
Peptides were dissolved in Milli Q water and then serially diluted in culture medium. In most cases, the serially diluted peptides were added to the upper compartment of the chemotaxis chamber. The chamber was incubated at 37°C in a humidified atmosphere of 5% CO2 for 4 hours.
After incubation, the cells were gently removed from the top of the filter with a pipette, 20 µl of 20 mM EDTA in PBS was added into each top well, and the mixture was incubated for 20 minutes at 4°C. The filter was then carefully flushed with media using a gentle flow, and removed. […] The curve was based on a two-fold dilution series of THP-1 cells (top standard 100,000 cells in 29 µl). […] The media was carefully aspirated from each well, and the converted dye was solubilized by 20 µl of DMSO.
Representative chemokines included […] ("CC"), MIP-1α and RANTES, and two alpha-chemokines ("CXC"), IL-8 and SDF-1α. Additionally, to determine the specificity ofpeptide 3(1-12)[MCP-1]
The number of pluses is a qualitative indicating of the activity of each peptide in each assay.

For `CC(C)[C@@H](N)C(=O)NCC(=O)N1CCC[C@@H]1C(=O)N[C@H](CCCCN)C(=O)N[C@H](CO)C(=O)N[C@H](CS)C(=O)N[C@H](CCC(N)=O)C(=O)N[C@H](CO)C(=O)N[C@H](CO)C(=O)N[C@@H](C(=O)N[C@H](CCC(=O)O)C(=O)N[C@H](Cc1ccccc1)C(=O)N[C@H](Cc1ccc(O)cc1)C(=O)N[C@H](CC(=O)O)C(=O)O)[C@H](C)O` [vgpkscqsstefyd] (H-[dV]G[dP][dK][dS][dC][dQ][dS][dS][dT][dE][dF][dY][dD]-OH), the “DARC binding (µM)” value in experiment [1] was “ns”. In the case of “CLDPKQKWIQC [unlabeled peptide, non-labeled version of the biotinylated peptide]”, the “ED50 for inhibition of MCP-1 induced migration” value in experiment [2] is “about 9 µM”. In the case of “CQVWKQKPDAC [LRD-Cys13Leu4Ile11pep3[3-12], Linear reverse-D derivative]”, the “Duffy selectivity / DARC specificity ratio” value in experiment [1] (estimated ka for binding to red blood cells divided by average inhibitory ED50) is listed as 4.59. Besides, the “Average ED50” value in experiment [3] worked out at 1000 nM. On to CSKPGV [CSKPGV], for which the “DARC binding (µM)” value in experiment [1] was “ns”. Regarding DYFETSSQC, the “DARC binding (µM)” value in experiment [1] is recorded as “ns”. Same read-out and setting: the same measure for DYFETSSQCSKPGV [Pep2[MIP1α]]: “ns”; for SYRRI [SYRRI]: “ns”; for TSSKC [TSSKC]: “ns”.
